The source of these data is patent US7060501B2 (priority 2002, dated 2006).

Experiment [1] deals with organophosphate hydrolase (Brevundimonas diminuta, UniProt P0A434). The note with it: cited from earlier work.
Experiment [2] has as its system maize callus. The experiment is classed as cell-based.
Experiment [3] concerns organophosphate hydrolase. The experiment is classed as biochemical. The following applies: 0.5 mM amiprophos-methyl, 2 μg organophosphate hydrolase, scans every 30 seconds.
The subject of experiment [4] is organophosphate hydrolase in maize callus. As to the kind of experiment: Coumaphos plate screen: fluorescence of maize callus under ultraviolet light. The experiment is classed as cell-based. The following applies: 3 ml of 1 mg/ml coumaphos per plate, two days post-transfer.
The subject of experiment [5] is transgenic OPH and control callus cells. Kind of experiment: Growth of callus cultures on haloxon plates (prospective Example 9, FIG. 6). In kind it is cell-based. The following applies: haloxon 1, 5, 10, 50, 100 and 500 μM, six weeks, percentage growth compared to control.

`COP(=O)(NC(C)=O)SC` (stereo not drawn) [acephate]: the “rate of hydrolysis by organophosphate hydrolase compared with strong alkaline / non-enzymatic hydrolysis” value in experiment [1] is given as “thousands of times greater”. With `COP(=S)(NC(C)C)Oc1ccc(C)cc1[N+](=O)[O-]` (stereo not drawn) [amiprophos-methyl], the “effect on new growth from maize callus” value in experiment [2] is “inhibitory effect”. Further, in experiment [3], the “cleavage by organophosphate hydrolase, detected by absorbance” value is reported as “results in the absorbance of light”. Consider `CCOP(=S)(OCC)Oc1ccc2c(C)c(Cl)c(=O)oc2c1` [coumaphos], for which, in experiment [2], the “effect on new growth from maize callus” value is reported as “inhibitory effect”. For the same molecule, in experiment [4] (non-transformed callus), the “fluorescence of non-transformed callus under ultraviolet light” value is given as “did not”. Besides, the “fluorescence of transformed callus under ultraviolet light” value in experiment [4] (transformed callus) is listed as “fluoresced”. Consider `Cc1c(Cl)c(=O)oc2cc(OP(=O)(OCCCl)OCCCl)ccc12` [haloxon], for which the “growth of transgenic OPH cells versus control cultures” value in experiment [5] was “ability of the transgenic OPH cells to grow at concentrations where control cultures would not”. In the case of `CCOC(=O)CC(SP(=S)(OC)OC)C(=O)OCC` (stereo not drawn) [malathion], in experiment [1], the “capability of the enzyme for hydrolysis” value is “poor capability” and the “rate of hydrolysis by organophosphate hydrolase compared with strong alkaline / non-enzymatic hydrolysis” value is “significantly better”.

With `CCOP(=S)(OCC)SCn1c(=O)oc2cc(Cl)ccc21` [phosalone], in experiment [1], the “rate of hydrolysis by organophosphate hydrolase compared with strong alkaline / non-enzymatic hydrolysis” value is on record as “thousands of times greater”. As for `CCCOP(=S)(OCCC)SCC(=O)N1CCCCC1C` (stereo not drawn) [piperophos], the “effect on new growth from maize callus” value in experiment [2] is on record as “inhibitory effect”. Turning to demeton-S-methyl, the “rate of hydrolysis by organophosphate hydrolase compared with strong alkaline / non-enzymatic hydrolysis” value in experiment [1] is “thousands of times greater”.
